Test results reported in PubChem BioAssay (NCI).
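Step 1: Grow cells in 96-well plates. Step 2: Expose to compound for 48 hours at 5 concentrations. Step 3: Interpolate endpoints linearly; if unreached, use highest concentration. TGI: total growth inhibition.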

Assays:
Test in all cases: NCI tumour cell line growth inhibition, 48 h
[1] = system: HCT-116 colon
[2] = system: ACHN renal
[3] = system: M14 melanoma
[4] = system: K-562 leukemia
[5] = system: SF-539 CNS
[6] = system: OVCAR-4 ovarian
[7] = system: MALME-3M melanoma
[8] = system: U251 CNS
[9] = system: MDA-N
[10] = system: UACC-257 melanoma
[11] = system: UACC-62 melanoma
[12] = system: HOP-92 NSCLC
[13] = system: RXF 393 renal
[14] = system: RPMI-8226 leukemia
[15] = system: SW-620 colon
[16] = system: 786-0 renal
[17] = system: T-47D breast
[18] = system: HCC-2998 colon
[19] = system: NCI-H460 lung
[20] = system: SN12C renal
[21] = system: SK-MEL-5 melanoma
[22] = system: LOX IMVI melanoma
[23] = system: OVCAR-3 ovarian
[24] = system: MDA-MB-435
[25] = system: SK-MEL-28 melanoma
[26] = system: SNB-19 CNS
[27] = system: MDA-MB-231 breast
[28] = system: KM12 colon
[29] = system: HOP-62 NSCLC
[30] = system: NCI-H23 lung
[31] = system: A549 NSCLC
[32] = system: SR leukemia
[33] = system: SNB-75 CNS
[34] = system: HCT-15 colon
[35] = system: NCI/ADR-RES ovarian
[36] = system: HS 578T breast
[37] = system: COLO 205 colon
[38] = system: SK-OV-3 ovarian
[39] = system: DU-145 prostate
[40] = system: OVCAR-5 ovarian
[41] = system: MCF7 breast
[42] = system: HT29 colon
[43] = system: UO-31 renal
[44] = system: NCI-H226 lung
[45] = system: TK-10 renal
[46] = system: A498 renal
[47] = system: SF-268 CNS
[48] = system: SK-MEL-2 melanoma
[49] = system: HL-60(TB) leukemia
[50] = system: BT-549 breast

COc1ccc(-c2cn3c(nc4ccccc43)c(/C=C/c3cccs3)n2)cc1
TGI [1]: > 100 µM | TGI [2]: > 100 µM | TGI [3]: > 100 µM | TGI [4]: > 100 µM | TGI [5]: > 100 µM | TGI [6]: > 100 µM | TGI [7]: > 100 µM | TGI [8]: > 100 µM | TGI [9]: 25.1 µM | TGI [10]: > 100 µM | TGI [11]: > 100 µM | TGI [12]: > 100 µM | TGI [13]: > 100 µM | TGI [14]: 44.1 µM | TGI [15]: > 100 µM | TGI [16]: > 100 µM | TGI [17]: > 100 µM | TGI [18]: > 100 µM | TGI [19]: > 100 µM | TGI [20]: > 100 µM | TGI [21]: > 100 µM | TGI [22]: > 100 µM | TGI [23]: > 100 µM | TGI [24]: 36.5 µM | TGI [25]: > 100 µM | TGI [26]: > 100 µM | TGI [27]: > 100 µM | TGI [28]: > 100 µM | TGI [29]: > 100 µM | TGI [30]: > 100 µM | TGI [31]: > 100 µM | TGI [32]: 15.4 µM | TGI [33]: > 100 µM | TGI [34]: > 100 µM | TGI [35]: 51.7 µM | TGI [36]: > 100 µM | TGI [37]: > 100 µM | TGI [38]: > 100 µM | TGI [39]: > 100 µM | TGI [40]: > 100 µM | TGI [41]: > 100 µM | TGI [42]: > 100 µM | TGI [43]: > 100 µM | TGI [44]: > 100 µM | TGI [45]: > 100 µM | TGI [46]: > 100 µM | TGI [47]: > 100 µM | TGI [48]: 45.6 µM | TGI [49]: 89.7 µM | TGI [50]: > 100 µM
